Test [1] has as its target Fibroblast growth factor receptor 1 (Homo sapiens, UniProt P11362). Briefly: Inhibitory activity against fibroblast growth factor receptor 1.
Test [2] addresses Platelet-derived growth factor receptor beta (Mus musculus, UniProt P05622). Briefly: Inhibitory activity against mouse PDGF beta receptor tyrosine kinase.
The test system of the next test is HCT-8. Briefly: Inhibitory activity against HCT-8 human colon adenocarcinoma cells was determined. It counts as functional, cell-based.
The subject of a further test is HT-29. In words: Inhibitory activity against HT-29 human colon adenocarcinoma cells was determined. It is filed as functional, cell-based.
The subject of a further test is SW-620. In words: Inhibitory activity against SW-620 human colon adenocarcinoma cells was determined. It is filed as functional, cell-based.
For test [3], the target named is Proto-oncogene tyrosine-protein kinase Src (Gallus gallus) (UniProt P00523). In words: Inhibitory activity against avian c-Src tyrosine kinase was determined.

In ChEMBL document CHEMBL1133618, “Synthesis and structure-activity relationships of 7-substituted 3-(2, 6-dichlorophenyl)-1,6-naphthyridin-2(1H)-ones as selective inhibitors of pp60(c-src)” (J Med Chem, 2000) one finds IC50 data, which are given here for 44 molecules.

The structures appear in SMILES notation. pIC50: −log10 of the molar value.

Platelet-derived growth factor receptor beta, sequence (P05622 whole entry): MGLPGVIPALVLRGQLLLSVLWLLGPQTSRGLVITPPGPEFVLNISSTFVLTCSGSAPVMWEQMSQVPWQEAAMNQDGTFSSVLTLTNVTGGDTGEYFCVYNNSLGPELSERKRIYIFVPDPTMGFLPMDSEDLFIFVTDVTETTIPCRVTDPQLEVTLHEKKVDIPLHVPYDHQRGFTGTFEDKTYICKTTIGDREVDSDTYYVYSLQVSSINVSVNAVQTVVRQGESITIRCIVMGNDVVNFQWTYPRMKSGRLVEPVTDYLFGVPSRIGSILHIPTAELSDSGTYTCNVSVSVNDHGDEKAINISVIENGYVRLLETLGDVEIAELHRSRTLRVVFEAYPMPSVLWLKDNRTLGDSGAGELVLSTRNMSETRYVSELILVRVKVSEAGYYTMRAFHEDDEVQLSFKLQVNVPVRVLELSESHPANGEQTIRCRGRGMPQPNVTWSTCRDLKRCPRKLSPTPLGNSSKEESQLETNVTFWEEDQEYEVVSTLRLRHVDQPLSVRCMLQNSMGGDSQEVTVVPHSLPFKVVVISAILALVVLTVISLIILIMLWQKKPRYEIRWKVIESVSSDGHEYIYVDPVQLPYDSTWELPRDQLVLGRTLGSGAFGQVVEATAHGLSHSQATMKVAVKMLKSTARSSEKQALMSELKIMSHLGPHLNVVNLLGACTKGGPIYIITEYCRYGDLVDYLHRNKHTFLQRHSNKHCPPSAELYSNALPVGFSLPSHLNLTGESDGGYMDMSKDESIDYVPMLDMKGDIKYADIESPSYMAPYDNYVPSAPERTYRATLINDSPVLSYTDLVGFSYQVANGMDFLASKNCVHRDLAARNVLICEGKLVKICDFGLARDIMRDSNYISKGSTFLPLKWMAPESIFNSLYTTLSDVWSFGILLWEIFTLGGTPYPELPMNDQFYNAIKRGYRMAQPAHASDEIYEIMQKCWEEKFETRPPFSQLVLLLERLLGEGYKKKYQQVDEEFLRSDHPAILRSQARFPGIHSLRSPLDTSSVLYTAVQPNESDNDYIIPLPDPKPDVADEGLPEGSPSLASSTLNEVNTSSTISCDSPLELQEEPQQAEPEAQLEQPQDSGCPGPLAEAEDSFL
Fibroblast growth factor receptor 1, sequence (P11362 whole entry): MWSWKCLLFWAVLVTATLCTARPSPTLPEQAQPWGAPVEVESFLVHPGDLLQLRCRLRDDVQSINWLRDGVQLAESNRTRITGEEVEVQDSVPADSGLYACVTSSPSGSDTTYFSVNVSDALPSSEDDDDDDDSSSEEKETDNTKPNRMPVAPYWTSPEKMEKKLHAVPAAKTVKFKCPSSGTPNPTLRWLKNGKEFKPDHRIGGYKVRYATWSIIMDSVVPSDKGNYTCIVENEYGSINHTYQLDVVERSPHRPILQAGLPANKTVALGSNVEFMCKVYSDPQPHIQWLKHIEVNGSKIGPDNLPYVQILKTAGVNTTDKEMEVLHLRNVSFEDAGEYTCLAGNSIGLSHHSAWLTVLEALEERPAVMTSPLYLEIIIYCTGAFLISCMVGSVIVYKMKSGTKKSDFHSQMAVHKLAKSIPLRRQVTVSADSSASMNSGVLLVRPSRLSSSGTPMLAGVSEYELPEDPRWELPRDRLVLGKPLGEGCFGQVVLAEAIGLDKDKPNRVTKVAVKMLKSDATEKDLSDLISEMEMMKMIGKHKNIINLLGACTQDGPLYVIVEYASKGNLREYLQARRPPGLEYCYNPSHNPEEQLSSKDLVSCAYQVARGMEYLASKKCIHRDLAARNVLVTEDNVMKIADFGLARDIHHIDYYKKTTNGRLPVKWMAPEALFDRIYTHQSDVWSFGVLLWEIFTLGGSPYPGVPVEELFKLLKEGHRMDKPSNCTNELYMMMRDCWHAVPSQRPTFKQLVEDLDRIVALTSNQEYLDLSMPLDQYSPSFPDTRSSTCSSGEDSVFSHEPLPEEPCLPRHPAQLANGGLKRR

Turning to `COc1ccc(Nc2ccc3cc(-c4c(Cl)cccc4Cl)c(=O)n(C)c3n2)cc1`, the pIC50 in test [1] and in test [2] was less than 4.30 each time.
As for `Cn1c(=O)c(-c2c(Cl)cccc2Cl)cc2cnc(Nc3ccncc3)cc21`, the pIC50 (in general, the negative decadic logarithm of the IC50, by convention in mol/L) in test [1] is 5.46; in test [2], 5.16; with HCT-8, 5.14; in the test with HT-29 it was 5.43; with SW-620, 5.06.
As for `CN1CCN(CCCCNc2ncc3cc(-c4c(Cl)cccc4Cl)c(=O)n(C)c3n2)CC1`, the negative-log IC50 (pIC50) in the test on HCT-8 and in the test on SW-620 was less than 4.60 each time.
On to `Cn1c(=O)c(-c2c(Cl)cccc2Cl)cc2cnc(Nc3ccc(N4CCOCC4)cc3)cc21`, for which the pIC50 in test [1] was 5.06; in test [2] it was 5.55.
As for `CNc1cc2c(cn1)cc(-c1c(Cl)cccc1Cl)c(=O)n2C`, the negative-log IC50 (pIC50) was 6.68 in test [1], 5.10 in test [2], 5.77 with HCT-8 and 5.55 in the test on HT-29.
As to `Cn1c(=O)c(-c2c(Cl)cccc2Cl)cc2ccc(Nc3ccccc3)nc21`, the pIC50 in test [1] and in test [2] was less than 4.30 throughout.
Regarding `CCN(CC)CCCOc1ccc(Nc2cc3nc(O)c(-c4c(Cl)cccc4Cl)cc3cn2)cc1`, the values for the negative-log IC50 (pIC50) in test [1] and in test [2] were 6.36 and 6.10, respectively.
Consider `CCN(CC)CCCCCNc1cc2c(cn1)cc(-c1c(Cl)cccc1Cl)c(=O)n2C`, for which the figures for the negative-log IC50 (pIC50) in test [1] and in test [2] were 7.10 and 6.13, respectively.
Turning to `CCN(CC)CCCNc1ccc2cc(-c3c(Cl)cccc3Cl)c(=O)n(C)c2n1`, the pIC50 in test [1] and in test [2] was less than 4.30 each time.
For the molecule `CN1CCN(CCCNc2ccc3cc(-c4c(Cl)cccc4Cl)c(=O)n(C)c3n2)CC1`, the negative-log IC50 (pIC50) in test [1] and in test [2] was less than 4.30 each time.
Take `COc1ccc(Nc2cc3c(cn2)cc(-c2c(Cl)cccc2Cl)c(=O)n3C)cc1`: the pIC50 in test [1] was 5.66; in test [2], 5.17.
Taken in the same sequence, the figures for `CCN(CC)CCCNc1cc2c(cn1)cc(-c1c(Cl)cccc1Cl)c(=O)n2C` were 6.82 and 5.34.
Turning to `CN1CCN(c2ccc(Nc3cc4c(cn3)cc(-c3c(Cl)cccc3Cl)c(=O)n4C)cc2)CC1`, the pIC50 in the test with HCT-8 is 5.68; in the test on HT-29 it was 6.08; in the test on SW-620, 5.37.
As to `Cn1c(=O)c(-c2c(Cl)cccc2Cl)cc2ccc(N)nc21`, the pIC50 in test [1] and in test [2] was less than 4.30 in each case.
In test [2], `CN1CCN(CCCCCNc2cc3c(cn2)cc(-c2c(Cl)cccc2Cl)c(=O)n3C)CC1` showed a pIC50 of 5.00.
Regarding `CCN(CC)C(=O)c1ccc(Nc2cc3c(cn2)cc(-c2c(Cl)cccc2Cl)c(=O)n3C)cc1`, the negative-log IC50 (pIC50) in test [1] is 5.72; in test [2] it was 4.80.
In test [2], `CN1CCN(CCCOc2ccc(Nc3cc4c(cn3)cc(-c3c(Cl)cccc3Cl)c(=O)n4C)cc2)CC1` gave a negative-log IC50 (pIC50) of 6.05.
Turning to `CN1CCN(CCCCNc2cc3c(cn2)cc(-c2c(Cl)cccc2Cl)c(=O)n3C)CC1`, the pIC50 in test [2] was 5.96; in the test with HCT-8, 5.62; in the test on HT-29, 5.80; in the test with SW-620 it was 5.59.
For `Cn1c(=O)c(-c2c(Cl)cccc2Cl)cc2cnc(N)cc21`, the negative logarithm of the IC50 (pIC50) in test [1] was 6.42; in test [2], 5.44; in the test with HCT-8, 5.66; with HT-29, 5.72.
Take `CCN(CC)CCCCNc1cc2nc(O)c(-c3c(Cl)cccc3Cl)cc2cn1`: the negative logarithm of the IC50 (pIC50) in test [1] is 6.77; in test [2] it was 5.96.
For `CCN(CC)CCNc1cc2c(cn1)cc(-c1c(Cl)cccc1Cl)c(=O)n2C` the same measures were 4.48 and less than 4.30.
Taken in the same sequence, the figures for `CCN(CC)CCCOc1ccc(Nc2cc3c(cn2)cc(-c2c(Cl)cccc2Cl)c(=O)n3C)cc1` were 6.60 and 6.44.
Consider `CN1CCN(CCOc2ccc(Nc3cc4c(cn3)cc(-c3c(Cl)cccc3Cl)c(=O)n4C)cc2)CC1`, for which the pIC50 in test [2] was 6.59.
Same read-out and setting: the same measure for `Cn1c(=O)c(-c2c(Cl)cccc2Cl)cc2cnc(NCCCn3ccnc3)cc21`: 5.49.
In the case of `CN1CCN(c2ccc(Nc3ncc4cc(-c5c(Cl)cccc5Cl)c(=O)n(C)c4n3)cc2)CC1`, the pIC50 was 6.62 in the test on HCT-8, 6.62 with HT-29 and 6.92 in the test on SW-620.
On to `Cn1c(=O)c(-c2c(Cl)cccc2Cl)cc2cnc(Nc3ccccc3)cc21`, for which the negative logarithm of the IC50 (pIC50) is 5.66 in test [1] and 5.85 in test [2].
Taken in the same sequence, the figures for `CCN(CC)CCNc1ncc2cc(-c3c(Cl)cccc3Cl)c(=O)n(C)c2n1` were less than 4.30 and less than 4.30.
`Cn1c(=O)c(-c2c(Cl)cccc2Cl)cc2cnc(NCCCN3CCOCC3)cc21`: the pIC50 in test [2] is 5.24.
The molecule `CN1CCN(CCCCCNc2ncc3cc(-c4c(Cl)cccc4Cl)c(=O)n(C)c3n2)CC1` had a pIC50 in test [3] of 7.22.
With `CCN(CC)CCCCNc1cc2c(cn1)cc(-c1c(Cl)cccc1Cl)c(=O)n2C`, the results for the pIC50 in test [1] and in test [2] were 7.10 and 5.62, respectively.
`Cn1c(=O)c(-c2c(Cl)cccc2Cl)cc2cnc(N)nc21` gave a pIC50 in the test with SW-620 of 5.59.
As to `CN1CCN(CCCNc2ncc3cc(-c4c(Cl)cccc4Cl)c(=O)n(C)c3n2)CC1`, the pIC50 is 5.60 with HCT-8, 4.82 with HT-29, 5.12 in the test with SW-620 and 6.82 in test [3].
For `CCN(CC)CCOc1ccc(Nc2ncc3cc(-c4c(Cl)cccc4Cl)c(=O)n(C)c3n2)cc1` [PD-0166285], the negative-log IC50 (pIC50) was 6.38 in the test on HCT-8, 6.55 with HT-29 and 6.57 in the test on SW-620.
On to `Cn1c(=O)c(-c2c(Cl)cccc2Cl)cc2cnc(Nc3ccncc3)nc21`, for which the pIC50 in the test on HCT-8 is 4.80; in the test on HT-29, 6.85; in test [3] it was 8.00.
`CCN(CC)C(=O)c1ccc(Nc2ncc3cc(-c4c(Cl)cccc4Cl)c(=O)n(C)c3n2)cc1`: the pIC50 in test [1] was 6.74; in test [2], 6.54.
On to `CNc1ncc2cc(-c3c(Cl)cccc3Cl)c(=O)n(C)c2n1`, for which the pIC50 in the test on HCT-8 is 5.11; with HT-29 it was 5.39; in the test with SW-620, 5.30; in test [3], 6.12.
On to `Cn1c(=O)c(-c2c(Cl)cccc2Cl)cc2cnc(Nc3ccccc3)nc21`, for which, in test [3], the pIC50 is 7.70.
With `CCN(CC)CCOc1ccc(Nc2ccc3cc(-c4c(Cl)cccc4Cl)c(=O)n(C)c3n2)cc1`, the negative logarithm of the IC50 (pIC50) in test [1] and in test [2] was less than 4.30 throughout.
For the molecule `CN1CCN(CCCNc2cc3nc(O)c(-c4c(Cl)cccc4Cl)cc3cn2)CC1`, the negative-log IC50 (pIC50) in test [1] is 7.14; in test [2], 5.85.
Take `COc1ccc(Nc2ncc3cc(-c4c(Cl)cccc4Cl)c(=O)n(C)c3n2)cc1`: the pIC50 in test [3] was 7.70.
On to `CN1CCN(CCCNc2cc3c(cn2)cc(-c2c(Cl)cccc2Cl)c(=O)n3C)CC1`, for which the negative logarithm of the IC50 (pIC50) in test [1] is 6.77; in test [2], 5.55; in the test on HCT-8, 5.55; with HT-29, 5.66; in the test with SW-620, 5.12.
Consider `CCN(CC)CCOc1ccc(Nc2cc3c(cn2)cc(-c2c(Cl)cccc2Cl)c(=O)n3C)cc1`, for which the pIC50 was 7.00 in test [2], 5.55 with HCT-8, 6.12 in the test on HT-29 and 5.17 in the test with SW-620.
Turning to `Cn1c(=O)c(-c2c(Cl)cccc2Cl)cc2cnc(Nc3ccc(N4CCOCC4)cc3)nc21`, the pIC50 in test [1] is 7.00; in test [2] it was 6.19; with HCT-8, 5.82; in the test on HT-29, 6.70; in the test on SW-620, 6.77.
With `CN(C)c1cc2c(cn1)cc(-c1c(Cl)cccc1Cl)c(=O)n2C`, the negative-log IC50 (pIC50) in test [1] and in test [2] was less than 4.30 each time.
